Measured values reported in US20070207544A1, “STROMA-FREE, SERUM-FREE, AND CHEMICALLY DEFINED MEDIUM AND METHOD FOR EX VIVO MONONUCLEAR CELL EXPANSION USING THE SAME” (FOOD INDUSTRY RESEARCH & DEVELOPMENT INSTITUTE, priority 2005, published 2007).

Experiments:
CD34^+ cells = test: Ex vivo expansion of UCB mononuclear cells: CD34^+ cell growth by flow cytometry; format: cell-based, human; settings: for effect of serum substitute on CD34^+ cell growth: sign of coefficient in Eq. (3), IMDM + seven cytokines
Procedure: (§1) The term UCB was harvested with a standard 250-ml blood bag (Terumo, Shibuya-ku, Tokyo, Japan) with the informed consent and processed within 24 hrs. Buffy coat cells were obtained from UCB by centrifugation (700×g, 20 mins), and were diluted with an equal volume of wash buffer (Dulbecco's phosphate buffered saline, D-PBS, containing 2 mM EDTA, Sigma, St. Louis, Mo.). Then the cells were layered onto Ficoll-Paque solution (ρ=1.077 g/ml, Amersham Biosciences, Uppsala, Sweden) and centrifuged to deplete red blood cells, platelets and plasma (700×g, 40 mins). MNCs were collected, and washed with D-PBS twice. Recovery rate, viability, percentage of CD34^+ fraction, colony-forming cells (CFCs), and long-term culture-initiating cells (LTC-ICs) were determined as day 0 for control. For expansion, MNC were seeded at a concentration of 5×10^5 cells/ml in 24-well plates with variable serum substitutes and cytokines according to experiment design (all experiments were repeated at least six times).
(§2) Two-level factorial design followed the method of steepest ascent was carried out to find the optimal concentrations of serum substitutes and cytokines for CD34^+ cells expansion. Fractional and full factorial design data were regressed by SPSS software to obtain the first order polynomial. Its statistic significance was determined by an F-test and the significance of the regression coefficients was analyzed by a t-test. The polynomial takes the form of White blood cells (WBCs)/ml or CD34^+ cells/ml=α0+αixi (1)
(§3) As has been extensively reviewed [Sandstrom C E, et al. Biotechnol Bioeng. 1994; 43:706-733; Mobest D, et al. Biotechnol Bioeng. 1998; 60:341-347; Bruyn C D, et al. Cytotherapy. 2003; 5:153-160] and based on the inventors' previous experience [Lebkowski J S, et al. Stem Cells. 1995; 13:607-612; Audet J, et al. Biotechnol Bioeng. 2002; 80:393-404; Yao C L, et al. Enzyme Micro Technol. 2003; 33:343-352], four kinds of compounds that are frequently used as serum substitutes were selected—bovine serum albumin (BSA), insulin, transferring (TF), and 2-mercaptoethanol (2-ME). The 2^4 full factorial design was adopted to determine which serum substitutes were required for CD34^+ cell expansion in the MNC culture system. The 2^4 full factorial design could efficiently test four compounds with 16 trials and provide completely degrees of freedom to obtain the coefficients. […] 2003; 33:343-352]; the initial cell density was 5×10^5 MNCs/ml and the cells were analyzed after 7-day culture.
(§4) The 2^10-6 fractional factorial design (16 runs simultaneously) was adopted to identify which cytokines could help CD34^+ cell expansion in the MNC culture system. This design could efficiently test ten compounds with 16 trials and provide sufficient degrees of freedom to obtain the coefficients.

white blood cells (WBCs) = test: Ex vivo expansion of UCB mononuclear cells: WBC growth (cell density); format: cell-based, human; settings: for effect of serum substitute on WBC growth: sign of coefficient in Eq. (2), IMDM + seven cytokines; for effect of cytokine on WBC growth: sign of coefficient in Eq. (4), IMDM + BIT
Procedure: as §1, §2, §3, §4

Molecule	effect of serum substitute on CD34^+ cell growth (CD34^+ cells)	effect of serum substitute on WBC growth (white blood cells (WBCs))	effect of cytokine on WBC growth (white blood cells (WBCs))	effect of cytokine on CD34^+ cell growth (CD34^+ cells; sign of coefficient in Eq. (5), IMDM + BIT)
OCCS [2-ME, 2-mercaptoethanol, reference compound]	inhibit	inhibit		
HGF: recombinant human hepatocyte growth factor; x10 in Eq. (4), (5)			inhibit	
IL-6: recombinant human interleukin-6; x5 in Eq. (4), (5)			inhibit	positive effect
TF: transferrin, serum substitute; x3 in Eq. (2), (3)	enhance	enhance		
insulin: insulin, serum substitute; x2 in Eq. (2), (3)	enhance	enhance		
